Measured values from patent US9663495B2 (YUHAN CORPORATION, priority 2013, dated 2017).

Tests used:
[1] = target: T1, GPR119 (Homo sapiens, UniProt Q8TDV5); assay: cAMP Accumulation Assay (GPR119 CRE-bla CHO-K1 cells, LiveBLAzer-FRET B/G); type: cell-based; details: for EC50: 5 hours incubation; for Emax (Fold): maximum activity, response ratio versus non-treated control group
T1 construct: host or cells: CHO-K1 (GPR119 CRE-bla, doxycycline-induced)
T1 sequence (Q8TDV5 1-335): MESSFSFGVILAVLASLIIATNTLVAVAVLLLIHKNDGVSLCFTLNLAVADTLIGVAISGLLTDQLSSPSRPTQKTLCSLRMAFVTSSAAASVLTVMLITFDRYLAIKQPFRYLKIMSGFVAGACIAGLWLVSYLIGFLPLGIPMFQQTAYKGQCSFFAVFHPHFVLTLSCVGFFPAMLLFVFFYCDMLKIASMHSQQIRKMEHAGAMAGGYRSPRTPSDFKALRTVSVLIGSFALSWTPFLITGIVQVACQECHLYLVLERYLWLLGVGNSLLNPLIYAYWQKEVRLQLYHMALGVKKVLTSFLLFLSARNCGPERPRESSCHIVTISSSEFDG
Protocol: 32 μl of an assay medium (DMEM supplemented with GlutaMax™ 99%, dialyzed FBS 1%, non-essential amino acid 1 mM, HEPES 25 mM, penicillin 100 U/ml, and streptomycin 100 μg/ml) was added to each well of a 384 black well plate and then the GPR119 CRE-bla CHO-K1 cells (Invitrogen) were seeded in 1×10^4 cells per well. Doxycycline was dissolved in the assay medium in the concentration of 1 μg/ml. The resulting solution (4 μl) was added to each well, which was then incubated in a 5% CO 2 incubator at 37° C. for about 20 to 24 hours. Each test compounds were diluted with the assay medium to prepare 10 samples, which have concentrations ranging from […], respectively. Each samples (8 μl) was added to each well, which was then incubated in a 5% CO2 incubator at 37° C. for 5 hours. In case of the control group, the well was treated with a solution (8 μl) prepared by diluting dimethyl sulfoxide (DMSO) in the assay medium to 1%. The substrate mixture (8 μl) was added to each well, which was then left under darkness at room temperature for 2 hours. The substrate mixture contains the followings: 1 mM LiveBLAzer™-FRET B/G(CCF4-AM) substrate 6 μl, solution B 60 μl, solution C 904 μl, and solution D 30 μl.
Fluorescence intensity was determined under the wavelength conditions of 400 nm/465 nm (excitation/emission) for the blue channel and 400 nm/535 nm (excitation/emission) for the green channel, with the fluorescence microplate reader (SpectraFluor Plus. TECAN). The net activity of each well was calculated by subtracting the average value of the cell-free control group from the value of the unstimulated (i.e., non-treated) control group or the stimulated (i.e., test compound-treated) group at each wavelength. MBX-2982 (Metabolex) was used as a control drug. The response ratio was calculated by dividing the net signal ratio (465 nm/535 nm) of the control drug or the test compound by the net signal ratio (465 nm/535 nm) of the non-treated control group. The relative ratio (R.R) was calculated by dividing the maximum activity [Emax (fold)] of the test compound (i.e., % activity in comparison with the background) by the maximum activity [Emax (fold)] of the control drug (MBX-2982) [Emax (% RR)=(Emax of the test compound/Emax of MBX-2982)×100]. EC50 (half maximal effective concentration) was calculated using the software for statistical analysis “Prism 5.0 (GraphPad)”, based on the values obtained according to concentrations of the test compounds.

[2] = target: T1, GPR119; assay: as above; type: cell-based; details: (Emax of the test compound/Emax of MBX-2982)x100, 5 hours incubation

| SMILES | EC50 [1] | Emax (Fold) [1] | Emax (% RR) [2] |
| --- | --- | --- | --- |
| CCCn1ncn(-c2ccc(-c3cnc(N4CCN(C(=O)OC(C)(C)C)C[C@@H]4C)nc3)cc2F)c1=O [Example 2, (S)-tert-butyl 4-(5-(3-fluoro-4-(5-oxo-1-propyl-1H-1,2,4-triazol-4(5H)-yl)phenyl)pyrimidin-2-yl)-3-methylpiperazin-1-carboxylate] | 31.9 nM | 3.3 Fold | 101.6 % RR |
| CC(C)n1ncn(-c2ccc(-c3cnc(N4CCN(C(=O)OC(C)(C)C)C[C@@H]4C)nc3)cc2F)c1=O [Example 3, (S)-tert-butyl 4-(5-(3-fluoro-4-(1-isopropyl-5-oxo-1H-1,2,4-triazol-4(5H)-yl)phenyl)pyrimidin-2-yl)-3-methylpiperazin-1-carboxylate] | 62 nM | 3.4 Fold | 113.4 % RR |
| COCCn1ncn(-c2ccc(-c3cnc(N4CCN(C(=O)OC(C)(C)C)C[C@@H]4C)nc3)cc2F)c1=O [Example 4, (S)-tert-butyl 4-(5-(3-fluoro-4-(1-(2-methoxyethyl)-5-oxo-1H-1,2,4-triazol-4(5H)-yl)phenyl)pyrimidin-2-yl)-3-methylpiperazin-1-carboxylate] | 54.9 nM | 3.5 Fold | 108.0 % RR |
| CCc1cnc(N2CCN(c3ncc(-c4ccc(-n5cnn(C)c5=O)c(F)c4)cn3)[C@@H](C)C2)nc1 [Example 7, (S)-4-(4-(2-(4-(5-ethylpyrimidin-2-yl)-2-methylpiperazin-1-yl)pyrimidin-5-yl)-2-fluorophenyl)-1-methyl-1H-1,2,4-triazol-5(4H)-one] | 26 nM | 2.5 Fold | 111.5 % RR |
| C[C@H]1CN(c2ccc(C(F)(F)F)cn2)CCN1c1ncc(-c2ccc(-n3cnn(C)c3=O)c(F)c2)cn1 [Example 8, (S)-4-(2-fluoro-4-(2-(2-methyl-4-(5-(trifluoromethyl)pyridin-2-yl)piperazin-1-yl)pyrimidin-5-yl)phenyl)-1-methyl-1H-1,2,4-triazol-5(4H)-one] | 5 nM | 2.5 Fold | 113.4 % RR |
| CCc1cnc(N2CCN(c3ncc(-c4ccc(-n5cnn(C)c5=O)c(F)c4)cc3C#N)[C@@H](C)C2)nc1 [Example 9, (S)-2-(4-(5-ethylpyrimidin-2-yl)-2-methylpiperazin-1-yl)-5-(3-fluoro-4-(1-methyl-5-oxo-1H-1,2,4-triazol-4(5H)-yl)phenyl)nicotinonitrile] | 3 nM | 2.8 Fold | 118.2 % RR |
| CCc1cnc(N2CCN(c3ncc(-c4ccc(-n5cnn(CC(C)(C)O)c5=O)c(F)c4)cc3C#N)[C@@H](C)C2)nc1 [Example 11, (S)-2-(4-(5-ethylpyrimidin-2-yl)-2-methylpiperazin-1-yl)-5-(3-fluoro-4-(1-(2-hydroxy-2-methylpropyl)-5-oxo-1H-1,2,4-triazol-4(5H)-yl)phenyl)nicotinonitrile] | 5 nM | 2.9 Fold | 102.1 % RR |
| CCc1cnc(N2CCN(c3ncc(-c4ccc(-n5cnn(CC(C)C)c5=O)c(F)c4)cc3C#N)[C@@H](C)C2)nc1 [Example 12, (S)-2-(4-(5-ethylpyrimidin-2-yl)-2-methylpiperazin-1-yl)-5-(3-fluoro-4-(1-isobutyl-5-oxo-1H-1,2,4-triazol-4(5H)-yl)phenyl)nicotinonitrile] | 1 nM | 2.6 Fold | 103.8 % RR |
| CCc1cnc(N2CCN(c3ncc(-c4ccc(-n5cnn(CC(=O)OC)c5=O)c(F)c4)cc3C#N)[C@@H](C)C2)nc1 [Example 13, (S)-methyl 2-(4-(4-(5-cyano-6-(4-(5-ethylpyrimidin-2-yl)-2-methylpiperazin-1-yl)pyridin-3-yl)-2-fluorophenyl)-5-oxo-4,5-dihydro-1H-1,2,4-triazol-1-yl)acetate] | 114 nM | 2.9 Fold | 102.0 % RR |
| CCc1cnc(N2CCN(c3ncc(-c4ccc(-n5cnn(CCNC(=O)OC(C)(C)C)c5=O)c(F)c4)cc3C#N)[C@@H](C)C2)nc1 [Example 16, (S)-tert-butyl 2-(4-(4-(5-cyano-6-(4-(5-ethylpyrimidin-2-yl)-2-methylpiperazin-1-yl)pyridin-3-yl)-2-fluorophenyl)-5-oxo-4,5-dihydro-1H-1,2,4-triazol-1-yl)ethylcarbamate] | 7.2 nM | 3.3 Fold | 116.8 % RR |
| CCc1cnc(N2CCN(c3ncc(-c4ccc(-n5cnn(CC#N)c5=O)c(F)c4)cc3C#N)[C@@H](C)C2)nc1 [Example 18, (S)-5-(4-(1-(cyanomethyl)-5-oxo-1H-1,2,4-triazol-4(5H)-yl)-3-fluorophenyl)-2-(4-(5-ethylpyrimidin-2-yl)-2-methylpiperazin-1-yl)nicotinonitrile] | 17 nM | 2.9 Fold | 104.6 % RR |
| CCc1cnc(N2CCN(c3ncc(-c4ccc(-n5cnn(CCN(C(=O)OC(C)(C)C)C(C)C)c5=O)c(F)c4)cc3C#N)[C@@H](C)C2)nc1 [Example 19, (S)-tert-butyl 2-(4-(4-(5-cyano-6-(4-(5-ethylpyrimidin-2-yl)-2-methylpiperazin-1-yl)pyridin-3-yl)-2-fluorophenyl)-5-oxo-4,5-dihydro-1H-1,2,4-triazol-1-yl)ethyl(isopropyl)carbamate] | 5.4 nM | 3.5 Fold | 113.0 % RR |
| CCc1cnc(N2CCN(c3ncc(-c4ccc(-n5cnn(CCNC(C)C)c5=O)c(F)c4)cc3C#N)[C@@H](C)C2)nc1.Cl [Example 20, (S)-2-(4-(5-ethylpyrimidin-2-yl)-2-methylpiperazin-1-yl)-5-(3-fluoro-4-(1-(2-(isopropylamino)ethyl)-5-oxo-1H-1,2,4-triazol-4(5H)-yl)phenyl)nicotinonitrile hydrochloride] | 5.6 nM | 3.1 Fold | 109.6 % RR |
| CCc1cnc(N2CCN(c3ncc(-c4ccc(-n5cn[nH]c5=O)c(F)c4)cc3C#N)[C@@H](C)C2)nc1 [Example 21, (S)-2-(4-(5-ethylpyrimidin-2-yl)-2-methylpiperazin-1-yl)-5-(3-fluoro-4-(5-oxo-1H-1,2,4-triazol-4(5H)-yl)phenyl)nicotinonitrile] | 2 nM | 2.9 Fold | 102.0 % RR |
| CCc1cnc(N2CCN(c3ncc(-c4ccc(-n5cnn(COC)c5=O)c(F)c4)cc3C#N)[C@@H](C)C2)nc1 [Example 22, (S)-2-(4-(5-ethylpyrimidin-2-yl)-2-methylpiperazin-1-yl)-5-(3-fluoro-4-(1-(methoxymethyl)-5-oxo-1H-1,2,4-triazol-4(5H)-yl)phenyl)nicotinonitrile] | 10.2 nM | 3.2 Fold | 119.3 % RR |
| CCc1cnc(N2CCN(c3ncc(-c4ccc(-n5cnn(CCNS(C)(=O)=O)c5=O)c(F)c4)cc3C#N)[C@@H](C)C2)nc1 [Example 23, (S)—N-(2-(4-(4-(5-cyano-6-(4-(5-ethylpyrimidin-2-yl)-2-methylpiperazin-1-yl)pyridin-3-yl)-2-fluorophenyl)-5-oxo-4,5-dihydro-1H-1,2,4-triazol-1-yl)ethyl)methanesulfonamide] | 7.9 nM | 3.4 Fold | 111.7 % RR |
| CCOC(=O)n1ncn(-c2ccc(-c3cnc(N4CCN(c5ncc(CC)cn5)C[C@@H]4C)c(C#N)c3)cc2F)c1=O [Example 24, (S)-ethyl 4-(4-(5-cyano-6-(4-(5-ethylpyrimidin-2-yl)-2-methylpiperazin-1-yl)pyridin-3-yl)-2-fluorophenyl)-5-oxo-4,5-dihydro-1H-1,2,4-triazol-1-carboxylate] | 4.5 nM | 3.6 Fold | 124.6 % RR |
